# Results published in patent publication US20060167115A1, “Compositions for the preservation of timber” (priority 2003, published 2006).
# Where “and” joins values, the source holds several entries; their conditions need not be identical. Equal entries are not always repeated. Entries after “also recorded” stand apart in the source; their conditions may differ.
# Key:
# Poria placenta [1] = experiment: Biological efficacy test (ASTM D1413-76), soil block medium; assay type: cell-based
# Description: (§1) The following fungi were tested: Neo-Lentinus lepideus (Brown rot fungus), Poria placenta (Brown rot fungus) and Gloeophyllum trabeum (Brown rot fungus). The preservative used was TBBA (waterborne). Seven concentrations of the preservative was used: 3.0%, 2.0%, 1.5%, 1.0%, 0.5%, 0.05% and 0.0% (w/w), i.e. the carrier solution in the absence of the preservative. All wood blocks were of Scots pine sapwood (Pinus sylvestris) with an approximate volume of 6.86 cm^3 (19 mm×19 mm×19 mm). All wood block specimens, where applicable, were vacuum impregnated with the preservative concentrations according to American standard ASTM D1413-76. • Treated test specimens: 3 (fungi)×7 (preservative concentrations)×1 (preservative)×8 (replicates)=168 test blocks • Untreated test specimens (control): 3 (fungi)×1 (preservative)×4 (replicates)=12 test blocks
# (§2) After block treatments were completed, all the blocks were sterilized using ionizing radiation according to the conditions set out in American standard ASTM D1413-76. The incubation period for the test was 12 weeks.
# Neo-Lentinus lepideus = experiment: as above; assay type: cell-based
# Description: as §1, §2
# Gloeophyllum trabeum = experiment: as above; assay type: cell-based
# Description: as §1, §2
# wood decay = experiment: Wood decay field stake test (modified AWPA E7-01), ground contact; conditions: TBBA added to ethanol, over all concentrations; groups of 10 stakes; seven months in ground
# Description: The preservative value of TBBA in terms of preventing wood decay was examined by ground contact exposure of TBBA treated stakes at a test plot in Gainesville, Fla. The test detail was essentially based on the “STANDARD METHOD OF EVALUATING WOOD PRESERVATIVES BY FIELD TESTS WITH STAKES”, Standard E7-01, promulgated by the American Wood Preservers Association (AWPA).
# All the test stakes were of southern pine sapwood and were vacuum impregnated with TBBA. The TBBA was dissolved in one of four solutions: ethanol, P9 type A oil, and in two micro-emulsions: • emulsion #1: TBBA 20.81%, Butyl Lactate 31.02%, NP-15 22.33% and water 25.83% • emulsion #2: TBBA 20.05%, Butyl Lactate 29.88%, NP-15 21.51% and water 28.55%
# Each of the emulsions was diluted so that the corresponding concentration (w/v) of TBBA in all of the solutions was: 1.72%, 3.4%, 5.1%, 6.8% and 8.5%.
# Two groups of control stakes were also installed in the test plot. One group was vacuum impregnated with pure ethanol. The second group was untreated.
# The groups of stakes for each treatment were installed in the test plot, left for seven months, and evaluated according to the procedure set-out in AWPA Standard E7-01. […]
# Poria placenta [2] = experiment: Biological screening test (modified EN 113), wood block weight loss; assay type: cell-based; conditions: 7 weeks exposure
# Description: (§3) The following fungi were employed in this test: Coniophora puteana (Brown rot fungus) and Poria placenta (Brown rot fungus). The following preservative was tested: TBBA (in ethanol carrier). Five concentrations of the preservative were used: 2%, 1%, 0.1%, 0.05% and 0.01% (w/w).
# (§4) All wood blocks employed in the examples to follow were of Scots pine sapwood (Pinus sylvestris) with a volume of 1 cm^3 (10 mm×10 mm×10 mm). Five replicate test specimens were used for each concentration of the preservative. Six virulence control specimens for each fungus were used to establish the wood decay capability of the fungi. Other test blocks were used to establish: the virulence of the test fungi; the absence of a preserving effect of the ethanol carrier; and weight changes of test blocks for reasons other than decay • Treated test specimens: 2 (fungi)×5 (preservative concentrations)×1 (preservative)×5 (replicates)=50 test blocks • Untreated test specimens (for exposure alongside treated blocks): one for each treated block=50 test blocks • Virulence control specimens: 2 (fungi)×6 (replicates)=12 test blocks • Ethanol carrier test specimens: 2 (fungi)×5 (replicates)=10 test blocks • Treated check test specimens: 1 (preservatives)×5 (concentrations)×5 (replicates)=25
# (§5) All timber specimens, where applicable, were treated with preservative (vacuum impregnation) and sterilized (ionizing radiation) prior to test, in accordance with European Standard EN 113. The incubation period for the test (length of block exposure to the chosen basidiomycete fungi) was 48 days or just under 7 weeks.
# (§6) Weight changes for particular waterlogged specimens, when these are clearly unrepresentative of a group, are not included in the mean figures presented.
# (§7) Tables I and II show weight losses (% of initial dry weight) of TBBA treated and untreated control test specimens after 7 weeks exposure to Coniophora puteana and Poria placenta respectively.
# (§8) In the tables, “retention” refers to the quantity of preservative that enters the wood per cubic meter of treated wood. It's value is determined by weighing the block of wood before and after it is treated with preservative, taking the difference between the two weights, and dividing the difference in weight by the volume of the block.
# Coniophora puteana = experiment: as above; assay type: cell-based; conditions: 7 weeks exposure
# Description: as §3, §4, §5, §6, §7, §8
# [3] = TBBA waterborne 0.05% w/w, retention 0.38 kg/m^3, 12 weeks
# [4] = TBBA waterborne 0.5% w/w, retention 3.86 kg/m^3, 12 weeks
# [5] = TBBA 0.01% w/w in ethanol carrier, retention 0.1 kg/m^3
# [6] = TBBA 0.05% w/w in ethanol carrier, retention 0.4 kg/m^3
# [7] = TBBA 0.1% w/w in ethanol carrier, retention 0.7 kg/m^3
smiles,measurement,setting,value
"CC(C)(c1cc(Br)c(O)c(Br)c1)c1cc(Br)c(O)c(Br)c1 [TBBA, Tetrabromobisphenol A]",Corrected mean loss in mass (%),Poria placenta [1]; [3],31.70 (9.88) %
same,Corrected mean loss in mass (%),Poria placenta [1]; [4],30.27 (5.59) %
same,Corrected mean loss in mass (%),"Poria placenta [1]; TBBA waterborne 1.0% w/w, retention 7.81 kg/m^3, 12 weeks",9.65 (18.03) %
same,Corrected mean loss in mass (%),"Poria placenta [1]; TBBA waterborne 1.5% w/w, retention 11.57 kg/m^3, 12 weeks",−0.12 (0.28) %
same,Corrected mean loss in mass (%),"Poria placenta [1]; TBBA waterborne 2.0% w/w, retention 15.72 kg/m^3, 12 weeks",−0.29 (0.26) %
same,Corrected mean loss in mass (%),"Poria placenta [1]; TBBA waterborne 3.0% w/w, retention 23.22 kg/m^3, 12 weeks",−0.71 (0.14) %
same,Corrected mean loss in mass (%),"Neo-Lentinus lepideus; TBBA waterborne 0.05% w/w, retention 0.40 kg/m^3, 12 weeks",31.44 (5.65) %
same,Corrected mean loss in mass (%),Neo-Lentinus lepideus; [4],4.55 (16.26) %
same,Corrected mean loss in mass (%),"Neo-Lentinus lepideus; TBBA waterborne 1.0% w/w, retention 7.62 kg/m^3, 12 weeks",0.36 (0.19) %
same,Corrected mean loss in mass (%),"Neo-Lentinus lepideus; TBBA waterborne 1.5% w/w, retention 11.61 kg/m^3, 12 weeks",0.04 (0.09) %
same,Corrected mean loss in mass (%),"Neo-Lentinus lepideus; TBBA waterborne 2.0% w/w, retention 15.51 kg/m^3, 12 weeks",0.04 (0.20) %
same,Corrected mean loss in mass (%),"Neo-Lentinus lepideus; TBBA waterborne 3.0% w/w, retention 23.79 kg/m^3, 12 weeks",0.11 (0.38) %
same,Corrected mean loss in mass (%),Gloeophyllum trabeum; [3],42.71 (13.14) %
same,Corrected mean loss in mass (%),"Gloeophyllum trabeum; TBBA waterborne 0.5% w/w, retention 3.87 kg/m^3, 12 weeks",45.02 (7.20) %
same,Corrected mean loss in mass (%),"Gloeophyllum trabeum; TBBA waterborne 1.0% w/w, retention 7.73 kg/m^3, 12 weeks",5.52 (8.99) %
same,Corrected mean loss in mass (%),"Gloeophyllum trabeum; TBBA waterborne 1.5% w/w, retention 11.75 kg/m^3, 12 weeks",2.232 (4.66) %
same,Corrected mean loss in mass (%),"Gloeophyllum trabeum; TBBA waterborne 2.0% w/w, retention 15.62 kg/m^3, 12 weeks",0.29 (0.25) %
same,Corrected mean loss in mass (%),"Gloeophyllum trabeum; TBBA waterborne 3.0% w/w, retention 23.02 kg/m^3, 12 weeks",0.13 (0.26) %
same,Instances of Grade No. 10 (count per group),wood decay,8-10
same,Corrected mean loss in mass (%),Poria placenta [2]; [5],0.88 (0.29) (5) %
same,Corrected mean loss in mass (%),Poria placenta [2]; [6],4.84 (0.32) (5) %
same,Corrected mean loss in mass (%),Poria placenta [2]; [7],26.67% and 26.67(11.04) %
same,Corrected mean loss in mass (%),"Poria placenta [2]; TBBA 1% w/w in ethanol carrier, retention 6.9 kg/m^3",no weight loss; also recorded: No mass loss
same,Corrected mean loss in mass (%),"Poria placenta [2]; TBBA 2% w/w in ethanol carrier, retention 14.2 kg/m^3",no weight loss
same,Corrected mean loss in mass (%),Coniophora puteana; [5],39.71(2.2) (4) %
same,Corrected mean loss in mass (%),Coniophora puteana; [6],40.63 (7.59) (5) %
same,Corrected mean loss in mass (%),Coniophora puteana; [7],24.80 (—) (1) %
same,Corrected mean loss in mass (%),"Coniophora puteana; TBBA 1% w/w in ethanol carrier, retention 6.7 kg/m^3",2.39% and 2.39 (1.56) (5) %
same,Corrected mean loss in mass (%),"Coniophora puteana; TBBA 2% w/w in ethanol carrier, retention 14.1 kg/m^3",no weight loss; also recorded: No mass loss
